Consider 13 molecules from patent US20080103191A1, “ENTACAPONE-DERIVATIVES” (priority 2006, published 2008).

Converted amounts (≈) assume the structure as drawn. Read-outs that look alike come from different tables or passages of the source. Where only a bound is given, the exact number is not on record here.

Series [1] in a line: Solubility in 0.1 N HCl, PBS buffer, FaSSIF and FeSSIF. Type of series: physicochemical. Particulars: thermodynamic from solid, ambient temperature. As to the method: For testing solubility, saturated solutions of selected compounds of formula I are prepared in four different systems and compared to the solubility of entacapone. The solubility is tested in 0.1 N HCl (pH 1), PBS buffer (pH 7.4) and in two simulated gastric fluids, FaSSIF at pH 6.5 (for fasting state) and FeSSIF at pH 5.0 (for fed state) at ambient temperature. The content of the FaSSIF simulated gastric fluid is as follows:
The solubility testing is carried out by the following method: An excess amount of each compound is added to a 0.1 N HCl, PBS buffer, FeSSIF and FaSSIF. The suspensions are shaken for 10 min. After centrifugation the concentration is determined by HPLC. Reversed phase gradient HPLC method, column YMC Pro C8, 50 mm×4.0 mm, 3 μm, Eluent A: Water:trifluoroacetic acid (100:0.5 (v/v)), Eluent B: Acetonitrile:trifluoroacetic:acid (100:0.5 (v/v)). Column temperature 30° C., Flow rate 3.0 mL/min, Detection wavelength: 220 nm

The nature of series [2]: Chemical hydrolysis stability at pH 1 and pH 7.4 (HPLC). Type of series: physicochemical. The following applies: 37° C., over 12 h. As to the method: The stability of compounds of the present invention is tested at pH 1 and at pH 7.4. The testing is carried out by the following HPLC method:
Chemical hydrolysis rates t1/2 [h] of selected compounds of formula I are determined in 0.1 N HCl (pH 1) and PBS buffer (pH 7.4) solution. Solutions are prepared by dissolving an appropriate amount of compound in 0.1 N HCl and PBS buffer solution. Samples were withdrawn at designated time intervals and analysed for remaining prodrug by HPLC at 37° C. over 12 h.
Reversed phase gradient HPLC method, column YMC Pro C8, 50 mm×4.0 mm, 3 μm, Eluent A: Water:trifluoroacetic acid (100:0.5 (v/v)), Eluent B: Acetonitrile:trifluoroacetic:acid (100:0.5 (v/v)). Column temperature 30° C., Flow rate 3.0 mL/min, Detection wavelength: 220 nm
For evaluation, the peak area of the respective compound from the first injection is defined as 100% relative concentration. The peak areas of all other subsequent injections are calculated in percentage relating to this standard. (relative concentration in %). The relative concentrations are plotted in a logarithmic scale (ln) against the injection times. Based on the assumption of a first order kinetic, the rate constant and half life times (t1/2 [h]) can be calculated.

The nature of series [3]: Log D (pH 7.4) by isocratic HPLC. In kind it is physicochemical. Particulars: YMC Pro C18 column, phosphate buffer pH 7.4/acetonitrile 45/55. As to the method: LogD is an indicator for absorption and lipophilicity for ionized compounds under defined pH conditions and is measured by applying an isocratic HPLC Method at pH 7.4.
The log D has been tested at pH 7.4. The testing has been carried out by the following method: Isocratic HPLC method: Column YMC Pro C18, 150 mm×4.0 mm, 3 μm, Eluent Phosphate buffer pH 7.4/acetonitrile (45/55, (v/v)), Runtime 15-60 min, Flow rate 1.2 ml/min, Detection wavelength: 220 nm

Series [4] in a line: Permeability in Caco-2 cells, apical to basolateral. The following applies: human; 21d Caco-2 monolayer, apical pH 6.5 to basolateral pH 7.4, 60 minutes. In kind it is in vitro ADME. The arrangement: dose or concentration left out as unconfirmed. An excerpt:
The human adenocarcinoma cell line Caco-2 is used as an in vitro system to predict oral absorption. These cells serve as a model of small bowel tissue and permeation through these cells is a predictor for gastro-intestinal absorption. Further to being a model for oral absorption, permeability in Caco-2 cells may be predictive for the blood brain barrier permeability (P. Garberg et al.; Toxicology in vitro 19 (2005); 299-334). […] The permeability in Caco-2 cells has been tested by the following method:
The permeability of selected compounds of formula I across Caco-2 (21d Caco-2-culture) monolayer in the apical to basolateral direction is investigated. Control substances were ^3H-propranolol and ^3H-mannitol.
The nominal concentration of the test items is […]. The pH value is set to 6.5 for the apical transport medium and to 7.4 for the basolateral medium. Samples are obtained following 60 minutes (120 minutes for control samples) incubation from the basolateral receiver chamber. At sampling time approximately 600 μL of each well are transferred into an eppendorf vial and stored between −12° and −30° C. until HPLC or LC-MS/MS analysis. The control substances are quantified by liquid scintillation.
In general terms: Caco-2 cells form a polarised layer with tight junctions and transporters.

Another series is described as follows: Plasma stability ex vivo. In kind it is in vitro ADME. The following applies: human plasma, 37° C., read-out: t1/2 plasma. As to the method: Plasma stability is determined in human and rat plasma ex vivo. For the determination of the plasma stability of the compounds of formula I, the test compounds were incubated with human plasma (c=5 μg/mL) at 37° C. for certain time intervals up to 60, resp. 120 min (depending on the compound). Afterwards the incubations were stopped by equivalent addition of acetonitrile for protein precipitation, and the samples were mixed and centrifuged. The supernatants were adequately diluted and analyzed by HPLC with UV detection at 305 nm.
The degradation of the compounds of formula I as well as the formation of the active drug entacapone were monitored, and the half-life times of the compounds of formula I were calculated from the obtained peak areas.

[5] abbreviates: 0.1 N HCl, pH 1, simulated gastric fluid, shaken 10 min, read-out: Solubility 0.1N HCl Ph 1.0.
The mark [6] stands for this setting: FaSSIF, pH 6.5, fassif, fasting state fluid, read-out: Solubility FaSSIF Ph 6.5.
The mark [7] stands for this setting: FeSSIF, pH 5, fessif, fed state fluid, read-out: Solubility FeSSIF Ph 5.0.
Where [8] appears, read: PBS buffer, pH 7.4, aqueous buffer, read-out: Solubility PBS Ph 7.4.
[9] abbreviates: pH 1, 0.1 N HCl, read-out: t1/2 at pH 1 (converted).
The mark [10] stands for this setting: pH 7.4, PBS buffer, read-out: t1/2 at pH 7.4 (converted).

Usually solubility stands for how much of the substance goes into solution per volume. As a reminder, the chromatographic logD is lipophilicity estimated from chromatographic retention. Regarding `CCN(CC)C(=O)/C(C#N)=C/c1cc(OC(=O)OCC(=O)O)c(O)c([N+](=O)[O-])c1` [Compound 146, [5-((E)-2-Cyano-2-diethylcarbamoyl-vinyl)-2-hydroxy-3-nitro-phenoxycarbonyloxy]-acetic acid], the solubility at 10 min in series [1] (setting [5]) is 30 µg/mL (≈ 73.6 µM); in series [1] (setting [6]), 630 µg/mL (≈ 1550 µM); in series [1] (setting [7]) it was 250 µg/mL (≈ 614 µM); in series [1] (setting [8]), 830 µg/mL (≈ 2040 µM). Also, the half-life in series [2] (setting [9]) was 11 h; in series [2] (setting [10]) it was 12.2 h. In addition, the chromatographic logD in series [3] is 1.7.
What is called Papp A→B is how fast a substance crosses the layer from the apical side. `CCCCCOC(=O)Oc1cc(/C=C(\C#N)C(=O)N(CC)CC)cc([N+](=O)[O-])c1O` [Compound 6, Carbonic acid 5-((E)-2-cyano-2-diethylcarbamoyl-vinyl)-2-hydroxy-3-nitro-phenyl ester pentyl ester] gave a Papp A→B at 60 min in series [4] below 5.1 ×10⁻⁶ cm/s.
The molecule `CCN(CC)C(=O)/C(C#N)=C/c1cc(OC(=O)OCC2COC(C)(C)O2)c(O)c([N+](=O)[O-])c1` (stereo not shown) [Compound 12, Carbonic acid 5-((E)-2-cyano-2-diethylcarbamoyl-vinyl)-2-hydroxy-3-nitro-phenyl ester 2,2-dimethyl-[1,3]dioxolan-4-ylmethyl ester] showed a Papp A→B at 60 min in series [4] of 2.3 ×10⁻⁶ cm/s. For the same molecule, the half-life was below 1 h in series [2] (setting [9]) and 2.8 h in series [2] (setting [10]).
For `C#CCCOC(=O)Oc1cc(/C=C(\C#N)C(=O)N(CC)CC)cc([N+](=O)[O-])c1O` [Compound 83, Carbonic acid but-3-ynyl ester 5-((E)-2-cyano-2-diethylcarbamoyl-vinyl)-2-hydroxy-3-nitro-phenyl ester], in series [4], the apparent permeability from apical to basolateral (Papp A→B) at 60 min came to 4.9 ×10⁻⁶ cm/s. In addition, the solubility at 10 min in series [1] (setting [5]) was 10 µg/mL (≈ 24.9 µM); in series [1] (setting [6]) it was 910 µg/mL (≈ 2270 µM); in series [1] (setting [7]) it was 430 µg/mL (≈ 1070 µM); in series [1] (setting [8]), 850 µg/mL (≈ 2120 µM). Also, the half-life was 12.8 h in series [2] (setting [9]) and 3 h in series [2] (setting [10]). The molecule also came in with a chromatographic logD in series [3] of 1.1.
In turn, `CCOC(=O)C(C)(C)OC(=O)Oc1cc(/C=C(\C#N)C(=O)N(CC)CC)cc([N+](=O)[O-])c1O` [Compound 26, 2-[5-((E)-2-Cyano-2-diethylcarbamoyl-vinyl)-2-hydroxy-3-nitro-phenoxycarbonyloxy]-2-methyl-propionic acid ethyl ester] had an apparent permeability from apical to basolateral (Papp A→B) at 60 min in series [4] below 5.1 ×10⁻⁶ cm/s.
For the molecule `CCN(CC)C(=O)/C(C#N)=C/c1cc(OC(=O)OC(C)c2ccccc2)c(O)c([N+](=O)[O-])c1` (stereo not shown) [Compound 137, Carbonic acid 5-((E)-2-cyano-2-diethylcarbamoyl-vinyl)-2-hydroxy-3-nitro-phenyl ester 1-phenyl-ethyl ester], the values for the solubility at 10 min in series [1] (setting [6]), in series [1] (setting [7]) and in series [1] (setting [8]) were 150 µg/mL (≈ 331 µM), 20 µg/mL (≈ 44.1 µM) and 340 µg/mL (≈ 750 µM), respectively. Also, the half-life is 7.8 h in series [2] (setting [9]) and 21.4 h in series [2] (setting [10]). Besides, in series [3], the chromatographic logD was found to be 2.6.
For `CCN(CC)C(=O)/C(C#N)=C/c1cc(OC(=O)OCc2ccc([N+](=O)[O-])cc2)c(O)c([N+](=O)[O-])c1` [Compound 27, Carbonic acid 5-((E)-2-cyano-2-diethylcarbamoyl-vinyl)-2-hydroxy-3-nitro-phenyl ester 4-nitro-benzyl ester], the half-life at 5 μg/mL in “Plasma stability ex vivo” is above 8 min. The Papp A→B at 60 min in series [4] was 18.1 ×10⁻⁶ cm/s. For the same molecule, the half-life in series [2] (setting [9]) is 3.4 h; in series [2] (setting [10]) it was 1.6 h. This molecule also displayed a chromatographic logD in series [3] above 8.
As to `CCN(CC)CCOC(=O)Oc1cc(/C=C(\C#N)C(=O)N(CC)CC)cc([N+](=O)[O-])c1O` [Compound 55, Carbonic acid 5-((E)-2-cyano-2-diethylcarbamoyl-vinyl)-2-hydroxy-3-nitro-phenyl ester 2-diethylamino-ethyl ester], the solubility at 10 min in series [1] (setting [5]), in series [1] (setting [6]), in series [1] (setting [7]) and in series [1] (setting [8]) was above 1000 µg/mL each time. The half-life in series [2] (setting [9]) is 4.1 h; in series [2] (setting [10]), below 1 h. In series [3], this molecule displayed a chromatographic logD of 1.
In the case of `CCN(CC)C(=O)/C(C#N)=C/c1cc(OC(=O)OCc2ccc3c(c2)OCO3)c(O)c([N+](=O)[O-])c1` [Compound 131, Carbonic acid benzo[1,3]dioxol-5-ylmethyl ester 5-((E)-2-cyano-2-diethylcarbamoyl-vinyl)-2-hydroxy-3-nitro-phenyl ester], the solubility at 10 min in series [1] (setting [5]) was 20 µg/mL (≈ 41.4 µM); in series [1] (setting [6]) it was 960 µg/mL (≈ 1990 µM); in series [1] (setting [7]) it was 710 µg/mL (≈ 1470 µM); in series [1] (setting [8]), 970 µg/mL (≈ 2010 µM). In addition, the half-life is 15.3 h in series [2] (setting [9]) and 3.4 h in series [2] (setting [10]). In addition, the chromatographic logD in series [3] came out at 0.9.
As to `CCN(CC)C(=O)/C(C#N)=C/c1cc(OC(=O)OCc2ccccc2)c(O)c([N+](=O)[O-])c1` [Compound 11, Carbonic acid benzyl ester 5-((E)-2-cyano-2-diethylcarbamoyl-vinyl)-2-hydroxy-3-nitro-phenyl ester], the solubility at 10 min in series [1] (setting [5]) is 150 µg/mL (≈ 341 µM); in series [1] (setting [6]) it was 80 µg/mL (≈ 182 µM); in series [1] (setting [7]), 20 µg/mL (≈ 45.5 µM); in series [1] (setting [8]), 280 µg/mL (≈ 637 µM). Besides, the half-life in series [2] (setting [9]) was 3 h; in series [2] (setting [10]) it was 4.1 h. The chromatographic logD in series [3] turned out to be 1.6.
In series [4], `CCN(CC)C(=O)/C(C#N)=C/c1cc(OC(=O)OC(C)(C)C(=O)OC)c(O)c([N+](=O)[O-])c1` [Compound 20, 2-[5-((E)-2-Cyano-2-diethylcarbamoyl-vinyl)-2-hydroxy-3-nitro-phenoxycarbonyloxy]-2-methyl-propionic acid methyl ester] came in with an apical-to-basolateral permeability (Papp A→B) at 60 min of 11.7 ×10⁻⁶ cm/s.
As for `CCN(CC)C(=O)COC(=O)Oc1cc(/C=C(\C#N)C(=O)N(CC)CC)cc([N+](=O)[O-])c1O` [Compound 18, Carbonic acid 5-((E)-2-cyano-2-diethylcarbamoyl-vinyl)-2-hydroxy-3-nitro-phenyl ester diethylcarbamoylmethyl ester], in series [4], the apical-to-basolateral permeability (Papp A→B) at 60 min was below 5.1 ×10⁻⁶ cm/s.
For `CCOC(=O)CC(C)OC(=O)Oc1cc(/C=C(\C#N)C(=O)N(CC)CC)cc([N+](=O)[O-])c1O` (stereo not shown) [Compound 34, 3-[5-((E)-2-Cyano-2-diethylcarbamoyl-vinyl)-2-hydroxy-3-nitro-phenoxycarbonyloxy]-butyric acid ethyl ester], the Papp A→B at 60 min in series [4] was found to be 14.6 ×10⁻⁶ cm/s.
